Each structure is given as a SMILES string.

One assay addresses BCL6 (Homo sapiens (Human), UniProt P41182). The assay can be described thus: Immunofluorescence high content imaging of BCL6 degradation in T47D cells. The format is cell-based.
Conditions: not given
A digest of the protocol:
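Following a 3-day incubation with serially diluted bifunctional compounds (final top 0.1 or 1 μM), T47D cells were PFA-fixed and immunostained for BCL6. Nuclear BCL6 signal was captured on a high-content imager.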
In turn, `CONC(=O)COc1cc2cc(Nc3cc(N4CCN(C(C)(C)C5CCN(c6ccc7c(c6)C(=O)N(C6CCC(=O)NC6=O)C7=O)CC5)CC4)ncc3Cl)ccc2n(C)c1=O` (stereo not shown) [compound 265, 2-((6-((5-chloro-2-(4-(2-(1-(2-(2,6-dioxopiperidin-3-yl)-1,3-dioxoisoindolin-5-yl)piperidin-4-yl)propan-2-yl)piperazin-1-yl)pyridin-4-yl)amino)-1-methyl-2-oxo-1,2-dihydroquinolin-3-yl)oxy)-N-methoxyacetamide] returned an IC50 of 10 to 50 nM.

As to `CNC(=O)COc1cc2cc(Nc3nc(N4CCC(CN5CC6(C5)CN(c5ccc7c(c5)C(=O)N(C5CCC(=O)NC5=O)C7=O)C6)CC4)ncc3Cl)ccc2n(C)c1=O` (stereo not shown) [compound 248, 2-((6-((5-chloro-2-(4-((6-(2-(2,6-dioxopiperidin-3-yl)-1,3-dioxoisoindolin-5-yl)-2,6-diazaspiro[3.3]heptan-2-yl)methyl)piperidin-1-yl)pyrimidin-4-yl)amino)-1-methyl-2-oxo-1,2-dihydroquinolin-3-yl)oxy)-N-methylacetamide], the IC50 is ≥ 100 nM.

`CNC(=O)COc1cc2cc(Nc3nc(N4CCN(C(C)(C)C5CCN(c6cccc7c6C(=O)N(C6CCC(=O)NC6=O)C7=O)CC5)CC4)ncc3Cl)ccc2n(C)c1=O` (stereo not shown) [compound 266, 2-((6-((5-chloro-2-(4-(2-(1-(2-(2,6-dioxopiperidin-3-yl)-1,3-dioxoisoindolin-4-yl)piperidin-4-yl)propan-2-yl)piperazin-1-yl)pyrimidin-4-yl)amino)-1-methyl-2-oxo-1,2-dihydroquinolin-3-yl)oxy)-N-methylacetamide]: the IC50 was < 10 nM.

As to `CC(=O)COc1cc2cc(Nc3nc(C#CC4CCCN(c5ccc6c(c5)C(=O)N(C5CCC(=O)NC5=O)C6=O)C4)ncc3Cl)ccc2n(C)c1=O` (stereo not shown) [compound 181, 5-(3-((5-chloro-4-((1-methyl-2-oxo-3-(2-oxopropoxy)-1,2-dihydroquinolin-6-yl)amino)pyrimidin-2-yl)ethynyl)piperidin-1-yl)-2-(2,6-dioxopiperidin-3-yl)isoindoline-1,3-dione], the IC50 is ≥ 100 nM.

Consider `CNC(=O)Cc1cc2cc(Nc3nc(N4CCC(CN5CCN(c6ccc7c(c6)C(=O)N(C6CCC(=O)NC6=O)C7=O)CC5)CC4)ncc3Cl)ccc2n(C)c1=O` (stereo not shown) [compound 239, 2-(6-((5-chloro-2-(4-((4-(2-(2,6-dioxopiperidin-3-yl)-1,3-dioxoisoindolin-5-yl)piperazin-1-yl)methyl)piperidin-1-yl)pyrimidin-4-yl)amino)-1-methyl-2-oxo-1,2-dihydroquinolin-3-yl)-N-methylacetamide], for which the IC50 is ≥ 100 nM.

The assay is the same for the next values; noted with them: T47D.
In turn, `CONC(=O)COc1cc2cc(Nc3cc(N4CCN(C(C)(C)C5CCN(c6ccc7c(c6)C(=O)N(C6CCC(=O)NC6=O)C7=O)CC5)CC4)ncc3Cl)ccc2n(C)c1=O` (stereo not shown) [compound 265, 2-((6-((5-chloro-2-(4-(2-(1-(2-(2,6-dioxopiperidin-3-yl)-1,3-dioxoisoindolin-5-yl)piperidin-4-yl)propan-2-yl)piperazin-1-yl)pyridin-4-yl)amino)-1-methyl-2-oxo-1,2-dihydroquinolin-3-yl)oxy)-N-methoxyacetamide] displayed a Dmax of 50 to 70%.

As for `CNC(=O)COc1cc2cc(Nc3nc(N4CCC(C5(N6CCC(c7ccc8c(c7)C(=O)N(C7CCC(=O)NC7=O)C8=O)CC6)CC5)CC4)ncc3Cl)ccc2n(C)c1=O` (stereo not shown) [compound 482, 2-{[6-({5-chloro-2-[4-(1-{4-[2-(2,6-dioxopiperidin-3-yl)-1,3-dioxo-2,3-dihydro-1H-isoindol-5-yl]piperidin-1-yl}cyclopropyl)piperidin-1-yl]pyrimidin-4-yl}amino)-1-methyl-2-oxo-1,2-dihydroquinolin-3-yl]oxy}-N-methylacetamide], the Dmax is 50 to 70%.

For `CNC(=O)COc1cc2cc(Nc3nc(N4CCN(C(C)(C)C5CCN(c6cccc7c6C(=O)N(C6CCC(=O)NC6=O)C7=O)CC5)CC4)ncc3Cl)ccc2n(C)c1=O` (stereo not shown) [compound 266, 2-((6-((5-chloro-2-(4-(2-(1-(2-(2,6-dioxopiperidin-3-yl)-1,3-dioxoisoindolin-4-yl)piperidin-4-yl)propan-2-yl)piperazin-1-yl)pyrimidin-4-yl)amino)-1-methyl-2-oxo-1,2-dihydroquinolin-3-yl)oxy)-N-methylacetamide], the Dmax was ≥ 70%.

Still in this assay, the particulars now being: T47D cells.
Regarding `CNC(=O)COc1cc2cc(Nc3nc(N4CCC(CN5CC6(CCN(c7ccc8c(c7)CN(C7CCC(=O)NC7=O)C8=O)CC6)C5)CC4)ncc3Cl)ccc2n(C(C)C)c1=O` (stereo not shown) [compound 436, 2-{[6-({5-chloro-2-[4-({7-[2-(2,6-dioxopiperidin-3-yl)-1-oxo-2,3-dihydro-1H-isoindol-5-yl]-2,7-diazaspiro[3.5]nonan-2-yl}methyl)piperidin-1-yl]pyrimidin-4-yl}amino)-2-oxo-1-(propan-2-yl)-1,2-dihydroquinolin-3-yl]oxy}-N-methylacetamide], the Dmax was ≥ 70% and the half-inhibitory concentration (IC50) is < 10 nM.

With `CNC(=O)COc1cc2cc(Nc3nc(N4CCN(C(C)C5CCN(c6ccc7c(c6)C(=O)N(C6CCC(=O)NC6=O)C7=O)CC5)CC4)ncc3Cl)ccc2n(C)c1=O` (stereo not shown) [compound 335, 2-{[6-({5-chloro-2-[4-(1-{1-[2-(2,6-dioxopiperidin-3-yl)-1,3-dioxo-2,3-dihydro-1H-isoindol-5-yl]piperidin-4-yl}ethyl)piperazin-1-yl]pyrimidin-4-yl}amino)-1-methyl-2-oxo-1,2-dihydroquinolin-3-yl]oxy}-N-methylacetamide], the Dmax lay within 50 to 70% and the IC50 is < 10 nM.

`CNC(=O)COc1cc2cc(Nc3nc(N4CCN(CCN5CCN(c6cccc7c6C(=O)N(C6CCC(=O)NC6=O)C7=O)CC5)CC4)ncc3Cl)ccc2n(C)c1=O` (stereo not shown) [compound 321, 2-{[6-({5-chloro-2-[4-(2-{4-[2-(2,6-dioxopiperidin-3-yl)-1,3-dioxo-2,3-dihydro-1H-isoindol-4-yl]piperazin-1-yl}ethyl)piperazin-1-yl]pyrimidin-4-yl}amino)-1-methyl-2-oxo-1,2-dihydroquinolin-3-yl]oxy}-N-methylacetamide]: the Dmax was in the range of 50 to 70% and the IC50 is < 10 nM.

`CCCn1c(=O)c(OCC(=O)NC)cc2cc(Nc3nc(N4CCN(CC5CCN(c6ccc7c(c6)C(=O)N(C6CCC(=O)NC6=O)C7=O)CC5)CC4)ncc3Cl)ccc21` (stereo not shown) [compound 314, 2-{[6-({5-chloro-2-[4-({1-[2-(2,6-dioxopiperidin-3-yl)-1,3-dioxo-2,3-dihydro-1H-isoindol-5-yl]piperidin-4-yl}methyl)piperazin-1-yl]pyrimidin-4-yl}amino)-2-oxo-1-propyl-1,2-dihydroquinolin-3-yl]oxy}-N-methylacetamide] registered a Dmax of 50 to 70% and a half-maximal inhibitory concentration (IC50) of 10 to 50 nM.

Turning to `CNC(=O)COc1cc2cc(Nc3nc(NCCc4ccc(C(=O)NC5CCC(=O)NC5=O)nc4)ncc3Cl)ccc2n(C(C)C)c1=O` (stereo not shown) [compound 373, 5-(2-{[5-chloro-4-({3-[(methylcarbamoyl)methoxy]-2-oxo-1-(propan-2-yl)-1,2-dihydroquinolin-6-yl}amino)pyrimidin-2-yl]amino}ethyl)-N-(2,6-dioxopiperidin-3-yl)pyridine-2-carboxamide], the IC50 is ≥ 100 nM.

As to `CNC(=O)COc1cc2cc(Nc3nc(N4CCC5(CC4)CN(CC4CCN(c6cccc7c6CN(C6CCC(=O)NC6=O)C7=O)CC4)C5)ncc3Cl)ccc2n(C(C)C)c1=O` (stereo not shown) [compound 443, 2-{[6-({5-chloro-2-[2-({1-[2-(2,6-dioxopiperidin-3-yl)-1-oxo-2,3-dihydro-1H-isoindol-4-yl]piperidin-4-yl}methyl)-2,7-diazaspiro[3.5]nonan-7-yl]pyrimidin-4-yl}amino)-2-oxo-1-(propan-2-yl)-1,2-dihydroquinolin-3-yl]oxy}-N-methylacetamide], the Dmax is 50 to 70% and the IC50 is < 10 nM.

The same assay, now with this note: class symbols A-D, read-out: EC50 (nM)*.
`CNC(=O)COc1cc2cc(Nc3nc(N4CCC(OCCOCCOCCOCCOc5ccc6c(c5)CN(C5CCC(=O)NC5=O)C6=O)CC4)ncc3Cl)ccc2n(C)c1=O` (stereo not shown) [compound 59, 2-((6-((5-chloro-2-(4-(2-(2-(2-(2-((2-(2,6-dioxopiperidin-3-yl)-1-oxoisoindolin-5-yl)oxy)ethoxy)ethoxy)ethoxy)ethoxy)piperidin-1-yl)pyrimidin-4-yl)amino)-1-methyl-2-oxo-1,2-dihydroquinolin-3-yl)oxy)-N-methylacetamide]: the DC50 is > 100 nM.

For `CNC(=O)COc1cc2cc(Nc3nc(N4CCC(Oc5ccc(OCCCOCCOCCOc6ccc7c(c6)CN(C6CCC(=O)NC6=O)C7=O)cc5)CC4)ncc3Cl)ccc2n(C)c1=O` (stereo not shown) [compound 96, 2-((6-((5-chloro-2-(4-(4-(3-(2-(2-((2-(2,6-dioxopiperidin-3-yl)-1-oxoisoindolin-5-yl)oxy)ethoxy)ethoxy)propoxy)phenoxy)piperidin-1-yl)pyrimidin-4-yl)amino)-1-methyl-2-oxo-1,2-dihydroquinolin-3-yl)oxy)-N-methylacetamide], the DC50 was > 100 nM.

Regarding `CN(C)C(=O)COc1cc2cc(Nc3nc(N4CCC(OCCOCCOCCOCCOCCOc5ccc6c(c5)CN(C5CCC(=O)NC5=O)C6=O)CC4)ncc3Cl)ccc2n(C)c1=O` (stereo not shown) [compound 99, 2-((6-((5-chloro-2-(4-((14-((2-(2,6-dioxopiperidin-3-yl)-1-oxoisoindolin-5-yl)oxy)-3,6,9,12-tetraoxatetradecyl)oxy)piperidin-1-yl)pyrimidin-4-yl)amino)-1-methyl-2-oxo-1,2-dihydroquinolin-3-yl)oxy)-N,N-dimethylacetamide], the DC50 was > 100 nM.

With `CNC(=O)COc1cc2cc(Nc3nc(N4CCC(OCCNc5cccc6c5C(=O)N(C5CCC(=O)NC5=O)C6=O)CC4)ncc3Cl)ccc2n(C)c1=O` (stereo not shown) [compound 80, 2-((6-((5-chloro-2-(4-(2-((2-(2,6-dioxopiperidin-3-yl)-1,3-dioxoisoindolin-4-yl)amino)ethoxy)piperidin-1-yl)pyrimidin-4-yl)amino)-1-methyl-2-oxo-1,2-dihydroquinolin-3-yl)oxy)-N-methylacetamide], the DC50 lay in the range of 50 to 100 nM.

With `CNC(=O)COc1cc2cc(Nc3nc(N4CCC(OCCOCCOCCOCCOCCOc5ccc6c(c5)CN(C5CCC(=O)N(C)C5=O)C6=O)CC4)ncc3Cl)ccc2n(C)c1=O` (stereo not shown) [compound 87, 2-((6-((5-chloro-2-(4-((14-((2-(1-methyl-2,6-dioxopiperidin-3-yl)-1-oxoisoindolin-5-yl)oxy)-3,6,9,12-tetraoxatetradecyl)oxy)piperidin-1-yl)pyrimidin-4-yl)amino)-1-methyl-2-oxo-1,2-dihydroquinolin-3-yl)oxy)-N-methylacetamide], the DC50 lay within 50 to 100 nM.

With `CNC(=O)COc1cc2cc(Nc3nc(N4CCC(OCCCOc5ccc6c(c5)CN(C5CCC(=O)NC5=O)C6=O)CC4)ncc3Cl)ccc2n(C)c1=O` (stereo not shown) [compound 139, 2-((6-((5-chloro-2-(4-(3-((2-(2,6-dioxopiperidin-3-yl)-1-oxoisoindolin-5-yl)oxy)propoxy)piperidin-1-yl)pyrimidin-4-yl)amino)-1-methyl-2-oxo-1,2-dihydroquinolin-3-yl)oxy)-N-methylacetamide], the DC50 lay in the range of 50 to 100 nM.
